Values quoted from earlier work as cited in publication PMC12281572.
Several values for one entry are separate records, joined by “and”; a condition that tells them apart may be missing. Equal entries are not always repeated.

assay: FTIR, 4-fluorophenol as donor (the pK_BHX database, per the paper); conditions: CCl4; 25 C

pK_BHX (log10 Kf of the 1:1 H-bond complex with 4-fluorophenol, by FTIR)	Compound
2.35 log units	CN(C)C=NCc1ccccc1
0.25 log units	CSC(C)(C)C
2.03 log units	O=c1ccocc1
2.65 log units	CCCCS(=O)CCCC
1.23 log units	CN(C)C=NC(=S)c1ccccc1
2.19 log units	CN=C(c1ccc(Br)cc1)N(C)C
1.25 log units	Fc1ccc(N=C(Nc2ccccc2)c2ccccc2)cc1
0.23 log units	Cn1cccc1
0.23 log units	CCN(CC)CC(F)(F)F
1.43 log units	CC1(C)CCC(C)(C)O1
1.32 log units	CN1CCN(C)C1=S
1.97 log units	Cc1cccc(CN)c1
2.1 log units	CN(C)C=NC(=O)c1ccccc1
2.49 log units	CN(C)C(=O)c1ccc(N(C)C)cc1
1.79 log units	CN(C)C=NC(=S)N(C)C
1.17 log units	CCN(CC)S(=O)(=O)N(CC)CC
0.68 log units	c1ccc(N2CCCCC2)cc1
1.37 log units	CNCCC#N
2.36 log units	CN(C)C=NC1CC1
1.58 log units	CCN(C=C[N+](=O)[O-])CC
1.38 log units	FC(F)(F)c1cccc(C2CCCN2)c1 (stereo not drawn)
0.25 log units	CCSCC
0.57 log units	N#Cc1ccccc1C(F)(F)F

pK_BHX (log10 Kf of the 1:1 H-bond complex with 4-fluorophenol, by FTIR)	Compound
1.43 log units	NCc1cccc(C(F)(F)F)c1
0.02 log units	C1OCOCO1
0.43 log units	CNc1ccc(C)cc1
1.11 log units	CC(C)OC(C)C
0.26 log units	COC(OC)(OC)OC
0.3 log units	CC(C)SC(C)C
0.88 log units	Cc1ccc(C#N)cc1
1.34 log units	N#CN1CCOCC1
-0.07 log units	Cc1cc(C)c(C)c(C)c1C
1.92 log units	C=CCN(C)C
2.46 log units	CN1CN(C)C1=O
0.0 log units	FC12CC3CC(C1)CC(F)(C3)C2
2.11 log units	CNc1ccccn1
2.59 log units	C1CNC1
2.06 log units	CC(C)(C)C(=O)N(C1CCCCC1)C1CCCCC1
2.31 log units	NCCCN
1.93 log units	c1ccc(C2CCCN2)cc1 (stereo not drawn)
1.05 log units	O=[N+]([O-])c1cc[n+]([O-])cc1
1.75 log units	CC(=Nc1ccc(C)cc1)N(C)c1ccccc1
1.37 log units	CN(C)C=Nc1ccccc1Br
0.16 log units	c1ccc(N2CCCC2)cc1
2.52 log units	CN(C)C=NC12CC3CC(CC(C3)C1)C2
0.32 log units	c1ncncn1

More lines, now with the values behind:

Compound	pK_BHX (log10 Kf of the 1:1 H-bond complex with 4-fluorophenol, by FTIR)
[O-][n+]1ccc(Cl)cc1	2.44 log units
O=C1CCCCCCCCCCCCCC1	1.22 log units
CNc1ccc(Cl)cc1	0.05 log units
CCC(C)=O	1.22 log units
Cc1cc(C)nc(C)c1	2.29 log units
Oc1ccccc1	-0.07 log units
CCOC(C)(C)C	1.08 log units
COc1ccc(OC)cc1	0.12 log units
C1CCOC1	1.28 log units
IC12CC3CC(CC(C3)C1)C2	-0.19 log units
CCOC(=O)c1ccccc1	0.94 log units
CN(C)C=O	2.1 log units
COc1ccncc1	2.13 log units
[O-][n+]1ccc(-c2ccccc2)cc1	2.85 log units
C#CCN(C)C	1.6 log units
C1CCSC1	0.32 log units
Fc1ccccn1	0.95 log units
Cc1ccc(N(C)C)cc1	0.69 log units
CNCc1ccccc1	1.82 log units
CCCO	1.0 log units
CCCCCCCCCCCCCCCCN	2.26 log units
CC(=O)N1CCCC1	2.61 log units
CC(=Nc1ccccc1)Nc1ccccc1	1.66 log units

Compound	pK_BHX (log10 Kf of the 1:1 H-bond complex with 4-fluorophenol, by FTIR)
CCCN(CCC)CCC	1.47 log units
N#Cc1ccccc1	0.8 log units
C1C2CC3CC1CC(C2)C31OOC12C1CC3CC(C1)CC2C3 (stereo not drawn)	0.63 log units
CN(C)C=Nc1ccc(N(C)C)cc1	2.32 log units
CCN(C(C)C)C(C)C	1.05 log units
COC(=O)N(C)C	1.8 log units
C1N2CN3CN1CN(C2)C3	1.33 log units
CCNC	2.25 log units
CN1CCCCCC1=O	2.53 log units
COc1ccc(C(=O)N(c2ccccc2)c2ccccc2)cc1	1.67 log units
CN1C(CC(=O)c2ccccc2)CCCC1CC(O)c1ccccc1 (stereo not drawn)	2.11 log units and 1.94 log units
CC(=O)c1cccc(C)c1	1.1 log units
CCN(CC)C(=O)SC	1.56 log units
c1ccc(-c2nc3ccccc3o2)cc1	1.18 log units
CCCCCCCCO	1.04 log units
c1ccc2c(c1)Cc1ccccc1-2	-0.38 log units
C1=CCCCC1	-0.82 log units
Cc1ccc(N=CN(C)C)cc1	2.07 log units
NC1CCCCC1	2.29 log units
O=S(c1ccccc1)c1ccccc1	2.04 log units
Cc1ccc(N=CNc2ccc(C)cc2)cc1	2.22 log units
CN(C)C(=O)c1ccc([N+](=O)[O-])cc1	1.9 log units
C1C2CC3CC1CC(C2)C3C1OC1C1C2CC3CC(C2)CC1C3 (stereo not drawn)	1.44 log units

Compound	pK_BHX (log10 Kf of the 1:1 H-bond complex with 4-fluorophenol, by FTIR)
CC(C)C(=O)N(C)C	2.26 log units
C#Cc1ccccc1	-0.44 log units and -0.6 log units
CCCCS(=O)(=O)CCCC	1.22 log units
CCc1ccncc1	2.07 log units
Brc1ccccc1	-0.66 log units and -0.92 log units
COC(=O)c1ccccc1	0.89 log units
CC(C)c1ccccn1	1.76 log units
CC(=O)c1ccccc1	1.11 log units
CN1CCCCC1=O	2.6 log units
CC1CCCO1 (stereo not drawn)	1.34 log units
CC(=O)N(c1ccccc1)c1ccccc1	1.94 log units
O=C1CCCCCC1	1.41 log units
CC12CCC(CC1=O)C2(C)C (stereo not drawn)	1.31 log units
CN(C)c1ccc(C=O)cc1	1.53 log units
COc1ccc(N(C)C(=Nc2ccc(C)cc2)c2ccccc2)cc1	1.63 log units
CC(C)(C)OC(C)(C)C	0.75 log units
CCCCCCCCN(CCCCCCCC)CCCCCCCC	1.57 log units
NCc1cccc(Cl)c1	1.55 log units
COc1ccc(N=C(c2ccccc2)N(C)c2ccccc2)cc1	1.53 log units
CCN(C=O)CC	2.16 log units
Cc1ccc(NC(=Nc2ccccc2)c2ccccc2)cc1	1.47 log units
O=S(c1ccc(Cl)cc1)c1ccc(Cl)cc1	1.68 log units
